Laboratory results from publication PMC11477289, “Low-Basicity 5-HT6 Receptor Ligands from the Group of Cyclic Arylguanidine Derivatives and Their Antiproliferative Activity Evaluation” (International Journal of Molecular Sciences, 2024).
Values belong to the compound of their own block, whether it stands above or below them.

How the values were obtained:
HSA and AGP (24:1) = assay: in vitro; settings: human, plasma
human 5-HT6 = target: T1, human 5-HT6 (Homo sapiens, UniProt P50406); assay: [3H]-LSD radioligand binding assay, 5-HT6R; settings: HEK293 expressing human 5-HT6R, read-out: 5-HT6 Ki
T1 construct: expressed in transfected cells
T1 sequence (P50406 whole entry): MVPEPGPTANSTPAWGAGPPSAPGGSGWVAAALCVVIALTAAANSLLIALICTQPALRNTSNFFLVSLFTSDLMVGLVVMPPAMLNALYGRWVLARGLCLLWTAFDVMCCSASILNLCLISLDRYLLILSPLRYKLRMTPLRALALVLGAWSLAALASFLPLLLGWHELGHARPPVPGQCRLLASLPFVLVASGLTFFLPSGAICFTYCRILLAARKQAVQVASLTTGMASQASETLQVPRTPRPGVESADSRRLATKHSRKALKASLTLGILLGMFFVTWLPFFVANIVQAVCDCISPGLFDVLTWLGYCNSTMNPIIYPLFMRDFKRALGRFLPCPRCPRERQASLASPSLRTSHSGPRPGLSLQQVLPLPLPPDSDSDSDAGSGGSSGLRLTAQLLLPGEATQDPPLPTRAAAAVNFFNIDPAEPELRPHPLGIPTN
Procedure: Next, the ligands’ affinity for the 5-HT6 receptors was evaluated in the [^3H]-LSD radioligand binding assay. Experiments were performed in a stable HEK293 cell line expressing the human 5-HT6R.
The pellets were stored at −80 °C.

[1] = set-up: method as in PMID 36183548; settings: MLMs, as previously reported ref 30; cited from earlier work
[2] = target: human serum albumin (HSA) (Homo sapiens, UniProt P02768); set-up: purchased Daicel Chiral Technologies; method as in PMID 28215942; settings: cited from earlier work
human serum albumin (HSA), sequence (P02768 25-609): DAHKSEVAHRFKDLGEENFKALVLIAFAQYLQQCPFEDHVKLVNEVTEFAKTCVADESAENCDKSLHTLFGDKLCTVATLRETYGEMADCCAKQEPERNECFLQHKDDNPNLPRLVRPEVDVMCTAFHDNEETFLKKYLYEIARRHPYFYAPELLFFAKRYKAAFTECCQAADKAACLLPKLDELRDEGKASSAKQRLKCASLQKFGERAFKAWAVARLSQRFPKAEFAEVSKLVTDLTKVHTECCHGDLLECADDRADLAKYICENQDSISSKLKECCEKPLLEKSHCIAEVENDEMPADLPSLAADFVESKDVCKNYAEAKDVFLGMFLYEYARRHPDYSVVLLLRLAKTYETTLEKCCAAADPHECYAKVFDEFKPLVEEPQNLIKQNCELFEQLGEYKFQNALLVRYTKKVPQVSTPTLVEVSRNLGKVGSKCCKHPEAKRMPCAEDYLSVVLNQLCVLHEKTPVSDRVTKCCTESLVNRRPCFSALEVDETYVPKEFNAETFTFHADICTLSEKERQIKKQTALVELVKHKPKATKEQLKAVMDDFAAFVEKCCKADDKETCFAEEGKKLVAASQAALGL

fraction unbound at 12 min, 20 µM (HSA and AGP (24:1)): 0.015
Compound: CC(=O)CC(c1ccccc1)c1c(O)c2ccccc2oc1=O (stereo not shown) [warfarin]

Ki (human 5-HT6): 651 ± 135 nM
Compound: O=S(=O)(NC1=NCc2ccccc2N1)c1cccc2ccccc12 [PR 40, N -(3,4-dihydroquinazolin-2-yl)naphthalene-1-sulfonamide]
metabolized [1]: 97%

Compound: O=c1[nH]c2ccccc2n1C1CCN(CCCC(c2ccc(F)cc2)c2ccc(F)cc2)CC1 [pimozide]
affinity to HSA [2]: 98.6%
